Measured values taken from publication PMC9714824, “Hexapeptides from mammalian inhibitory hormone hunt activate and inactivate nematode reproduction” (PLOS ONE, 2022).

Key:
Caenorhabditis elegans = conditions: cited from earlier work
Excerpt: As a control compound there was synthesized EPL030, having the aa sequence KLKMNGKNIEPVFT. This is a scrambling of EPL001’s sequence, based on cards drawn at random by one of us (CRM). […] The figures for fecundity were EPL001 +43 ... || Returning to EPL030, the scrambled-sequence EPL001 comparator, this has engendered perplexity by displaying the same activity as EPL001 across multiple mammalian systems. Thus, EPL030 suppressed human prostate cancer cells in vitro more than EPL001 in two laboratories and the proliferation of rat bone marrow cells in vitro in a third.

rat bone marrow cells = assay: Bone marrow cell assay, time-lapse cell counts over 24h; format: cell-based; conditions: 1μM in the medium, controls increased by about the same percentage
Description: The method has been described previously at length. Bone marrow cells, consisting of various cell types including mesenchymal stem cells and fibroblasts, were cultured from adult male rats (Rattus norvegicus, SD strain). These cells were passaged from a growing primary stock in a T75 tissue culture flask (Sarstedt) into a 48 well tissue culture plate (IWAKI), with a cell density of 1 x 10^5/ml. The cell culture media, henceforth referred to as ‘supplemented a-MEMS,’ comprised α-MEMS media supplemented with 10% FCS and 1% penicillin/streptomycin (all Life Technologies, Carlsbad, CA, US). On the day of peptide addition to the cells, the supplemented α-MEMS was gently removed and fresh supplemented α-MEMS added, with 10% test material by volume to achieve micromolar concentrations, untreated controls receiving just fresh supplemented α-MEMS. (For dose levels see legends in respective result figures) All samples were filter sterilised using a Millex-GV […] syringe filter unit (Merck, Kenilworth, NJ, USA). The cells were imaged for 24 h using an incubated Zeiss Axiovert 135M microscope with a Prior Proscan II motorised stage, at 37 °C with a 5% CO2 in air feed. Each well of the 48-well tissue culture plate was then imaged for 24h every 5 min using Metamorph software (MDS Analytical Technologies, Wokingham, UK), with each well having four fields of view. The viability and cell numbers were reviewed by analysing the images captured over the 24h period and cell counts were taken at selected time points using the Metamorph software.
Fig 6 Bone marrow cells in culture exposed to long peptides. Cells were counted over 24h after exposure to the 14mer peptide EPL001 or its scrambled-sequence control EPL030 at 6μM final concentration or to the 20mer EPL120 at 5μM final concentration, compared to peptide-untreated controls.
Fig 7 Bone marrow cells in culture exposed to hexapeptides. Cells were counted over 24h after exposure to either EPL016 (= MKPLTG, the ‘Front 6’ of the 14mer EPL001) or EPL036 (= IEPVFT, the ‘Back 6’ of EPL030, the scrambled-sequence control of EPL001) at 1μM final concentration, compared to peptide-untreated controls.

PNT2 cells = assay: MTS colorimetric viable cell assay, PNT2; format: cell-based, human; conditions: 30 μM, 27h, 492 nm, triplicate
Description: (§1) Assays involving a range of peptides from 14mer down to 6mers assessed total viable PC3 or PNT2 cells using a 96-well plate MTS colorimetric assay (CellTiter 96 Aqueous One Solution Cell Proliferation Assay, Promega, Southampton, UK), with absorbance measured at 492 nm. Cells were seeded at 8,000 per well and grown for 27h. Peptides were administered at the outset to a final concentration of 30 μM (in 2 μl) to samples in triplicate. (A higher dosage was used than in the 14mer peptides study to shorten the timecourse of response.) Controls received buffer. Data are OD mean +/ − SEM, with statistical analysis by two tailed t-test. A time course study of the 14mers on PC3s, using the same technique, involved measurements at 24h and 48h.
(§2) Fig 5 Effects of a range of peptides on human prostate cancer cell growth in vitro. Assays involved a range of peptides from 14mers down to 6mers (Table 1), with viable cells assessed using a 96-well plate MTS colorimetric assay. Absorbance measured at 492 nm. Cells were seeded at 8,000 per well and grown for 27h. Peptides were administered at the outset to a final concentration of 30 μM (in 2 μl) to samples in triplicate. Controls received buffer. Data are OD mean +/- SEM, with statistical analysis by two tailed t-test. * p<0.05; **p<0.025.

PC3 cells = assay: MTS colorimetric viable cell assay, PC3; format: cell-based, human; conditions: PC3; 30 μM; 27h; MTS, 492 nm; triplicate
Description: as §1, §2

DU145 cells = assay: MTS viable cell assay, DU145 (Epistem); format: cell-based, human; conditions: DU145, 72h
Description: Further assays on human prostate cancer cells were conducted at a contract research organisation (Epistem, Manchester, UK). LNCaP or DU145 cells seeded at 3,000 cells/well across a 96-well plate were cultured in RPMI (phenol red free), 10% FCS, 1% sodium pyruvate, Pen/strep and L-glutamine for 24h before exposure to peptides, at a single dose level in the case of LNCaPs or multiple dose levels in the case of DU145s. (For dose levels see Results.) Controls received vehicle (1% PBS). For the DU145s peptide administration was repeated after 24h. 72h after the first administration (DU145s) or only administration (LNCaP) total viable cell numbers were measured colorimetrically (MTS) using a CellTiter 96 AQueous One Solution Cell Proliferation Assay (Promega, Southampton, UK), following manufacturer’s instructions. Briefly, the media on the plates was replaced with the CellTiter reagent diluted 1:5 in DMEM. The plates were returned to the incubator for 3 hours before reading absorbance at 492 nm on a FLUORstar OPTIMA (BMG Labtech). CellTiter data are the absorbance minus background values (CellTiter plus DMEM), expressed as (OD mean +/− SEM). Statistical analysis was by ANOVA, Dunnett’s multiple comparisons test.

Substance	Increase in cumulative offspring vs untreated controls (Caenorhabditis elegans) [%]	Reduction of the population of rat bone marrow cells (rat bone marrow cells) [%]	Difference in percentage terms between control and test OD means (PNT2 cells) [%]	Difference in percentage terms between control and test OD means (PC3 cells) [%]	Test mean OD vs control mean (DU145 cells; 0.15 μM) [%]	Test mean OD vs control mean (DU145 cells; 150 μM (highest concentration)) [%]
MKPLTG [EPL016, MKPLTG, EPL001 Front 6]	50	18				
MLKTGEKPV [EPL901, first 9 aa of EPL143, from sSgII’s second sorting domain]			−28.9	−21.2		
MLKTGEKPVFKNNI [EPL143, Contiguous form of sSgII-14, an anagram of EPL001; benchmark for chi-squared test]			−20.6	−10.2	−4.3	−18.7
